The test concerns Radiation Induced Oral Mucositis. As to the kind of experiment: Syrian Hamster Model Radiation Induced Oral Mucositis Study. Format: in vivo. Particulars: 40 Gy radiation Day 0. On the procedure: Various CSA compounds were screened to determine and compare therapeutic effect on oral mucositis. The test was conducted according to a Syrian Hamster Model Radiation Induced Oral Mucositis Study Design as in Table 1. [table] The objective of the study was to identify compounds that can maintain oral mucositis score below 3 in hamster model according to the scoring system in Table 2. [table]

As for `CCCCCCCCNC(=O)CC[C@@H](C)[C@H]1CC[C@H]2[C@@H]3[C@H](OCCCN)C[C@@H]4C[C@H](OCCCN)CC[C@]4(C)[C@H]3C[C@H](OCCCN)[C@]12C` [CSA-192], under “topical T.I.D. Day -1 to 28, 300 or 1000 ppm, mucositis evaluated Day 6 to 28”, the “reduction in oral mucositis (percent of animal days with mucositis, FIG. 2)” value is listed as “greater than 90%”. In addition, the “oral mucositis severity scores (FIG. 3)” value (topical T.I.D. Day -1 to 28, score 0-5 every 2 days, Day 6 to 28) is “strongest and longest lasting reduction in oral mucositis”.

For the origin of these results see patent US9434759B1, “Cationic steroidal antimicrobial compounds and methods of manufacturing such compounds” (BRIGHAM YOUNG UNIVERSITY, priority 2015, dated 2016).
